Source: US6759390B2, “Compounds and their uses” (priority 2000, dated 2004)

Key:
[1] = system: PDH phosphatase; test: PDH phosphatase activation; format: biochemical; details: 100 μM
Excerpt: (§1) Methods for obtaining A-type and P-type mediators are set out in Caro et al, 1997, and in WO98/11116 and WO98/11117. Protocols for determining characteristic IPG biological activities such as PDH activation, PKA inhibition, acetylCoA activation, fructose-1,6-bis-phosphatase activity and lipogenesis are well known in the art, e.g. as described in Caro et al^[14].
(§2) The compounds of the invention can be tested for one or more the characteristic IPG-P and/or IPG-A activities mentioned above to determine whether they will be suitable for use a IPG mimetics or antagonists. Preferred assays measure the effect of the compounds on PDH phosphatase, PKA or lipogenesis. Protocols for these assays are provided in Caro et al^[14].

[2] = system: lipogenesis; test: basal lipogenesis stimulation; format: cell-based; details: FIG. 2
Excerpt: as §1, §2

[3] = system: lipogenesis; test: glucose stimulated lipogenesis stimulation; format: cell-based; details: FIG. 3
Excerpt: as §1, §2

[4] = system: PKA; test: PKA inhibition; format: biochemical
Excerpt: as §1, §2

PDH activation [1]	Compound	effect on basal lipogenesis [2]	effect on glucose stimulated lipogenesis [3]	PKA inhibition ([4]; 0.1 μM)	PKA inhibition ([4]; 10 μM)
14%	N[C@H]1[C@@H](O[C@H]2[C@H](O)[C@H](O)[C@H](O)[C@@H](O)[C@@H]2O)O[C@H](COP(=O)(O)O)[C@@H](O)[C@@H]1O [RGL1023, O-(2′-amino-2′-deoxy-6′-phosphate-D-glucopyranosyl)-α(1,6)-D-myo-inositol]	stimulate lipogenesis	stimulate lipogenesis	–	–
18%	NC1C(OC2C(O)C(O)C(O)C(O)C2OP(=O)(O)O)OC(CO)C(O)C1O [RGL1115, 1′-D-6-O-(2′-amino-2′-deoxy-α-D-glucanopyranosyl)-5-O-phosphate-myo-inositol]	–	–	–	–
132%	NC1C(OC2C(O)C(O)C(O)C(O)C2O)OC(CO)C(OP(=O)(O)O)C1O [RGL1027, O-(2′-amino-2′-deoxy-4′-phosphate-D-glucopyranosyl)-α(1,6)-D-myo-inositol]	inhibits lipogenesis	inhibits lipogenesis	18%	10%
361%	NC1C(OC2C(O)C(O)C(O)C(O)C2O)OC(CO)C(O)C1OP(=O)(O)O [RGL1029, O-(2′-amino-2′-deoxy-3′-phosphate-D-glucopyranosyl)-α(1,6)-D-myo-inositol]	stimulate lipogenesis	stimulate lipogenesis	59%	33%
